These results are taken from PMC6222781, “Structural Optimization of Foldamer-Dendrimer Conjugates as Multivalent Agents against the Toxic Effects of Amyloid Beta Oligomers” (Molecules : A Journal of Synthetic Chemistry and Natural …, 2018).

Experiment [1] has as its target T1, Aβ oligomers (Homo sapiens, UniProt P05067).
T1 construct: Ser^26 depsipeptide iso-Aβ (1–42) was used; made in house; host or cells: chemical peptide synthesis (no expression host)
In words: Isothermal titration calorimetry (ITC) binding to Aβ oligomers. The following applies: KD ITC, Table 1, PBS pH 7.4, 285 K, Aβ 100 µM in cell, ligand 250 µM in syringe, two independent site model. The method, then:
The binding affinities of 2b–2i to Aβ oligomers were tested in ITC experiments.
In this work, Ser^26 depsipeptide iso-Aβ (1–42) was used, which was synthesized and purified as described previously. The lyophilized iso-Aβ (1–42) was dissolved in MilliQ water to a concentration of 1 mg mL^−1, sonicated for 3 min and the pH was set to 7.0 to initiate an O to N acyl migration, whereby the native sequence can be readily formed. The sample was incubated at room temperature for 10 min. Then the pH was set to 11 and the sample was kept at room temperature for additional 2 h. After the incubation, the Aβ stock solution was aliquoted and stored at −20 °C until use. To obtain Aβ oligomers, the 1 mg mL^−1 aliquot was diluted to a final concentration of 50 μM with 26.67 mM PBS and the pH was set to 7.4 with 1 M HCl. The sample was incubated at 37 °C for 3 h.
Isothermal calorimetric titrations were performed with a Microcal VP-ITC microcalorimeter in pH 7.4 PBS buffer solution. In individual titrations, 10 µL portions of the ligand containing solution were repeatedly injected from the computer-controlled 300-µL microsyringe at intervals of 300 s into the Aβ oligomer solution prepared in the same buffer as the ligand. All measurements were carried out at 285 K. The Aβ concentration in the cell was 100 µM and the total ligand concentration was 250 µM in the syringe and the titration was stopped when the precipitation of the Aβ aggregates became excessive. Control experiments were performed by injecting the ligand into a cell containing buffer with no target, and the heats of dilution were subtracted from those measured in the presence of Aβ. The experimental data were fitted to the two independent site binding models by using a nonlinear least-squares procedure, with ΔHb, ΔHb’, Kd, Kd’ ([…]), n and n’ (number of binding sites for monomer), as adjustable parameters.

Experiment [2] deals with T1, Aβ oligomers. In words: Sandwich ELISA binding of biotin-tagged conjugates to Aβ. From the text:
To study the role of certain structure elements in the binding affinity, a set of new foldamer sequences were designed (Figure 2) and ligated to lysine-dendron scaffolds having a focal symmetry. This template with biotin affinity tag can be easily synthesized by solid phase peptide synthesis and immobilized on a streptavidin coated support such as the surface of the ELISA plate. Structural changes included fine-tuning the side-chain properties (2b–2d), changing the position of ionic residues (2e) and introducing bulky bicyclic side-chains (2f–2i).
The binding affinities of 2b–2i to Aβ oligomers were tested in ITC experiments. In such cases where the fitting failed due to low heat response or poor solubility, sandwich ELISA experiments were performed to enable the comparison of all conjugates (see Supporting Information for details).
The apparent dissociation constants for the complete set of new conjugates were calculated individually from the data of the ELISA experiments as well. Comparing the KD values of 2f–2i in this case, the replacement of ACHC to ABHC had only a minor effect on the Aβ binding. The cyclic β-amino acid ACHC not only provides the helical conformation of such a short foldamer but also protects the ionic residues from solvent upon binding due to its hydrophobicity.

Structures are written as SMILES.

T1 sequence (P05067 672-713 limits assumed): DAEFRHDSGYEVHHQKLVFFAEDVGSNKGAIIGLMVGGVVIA

For the compound `N=C(N)NCCC[C@@H](CC(=O)N[C@H]1CCCC[C@@H]1C(=O)N[C@H]1CCCC[C@@H]1C(=O)N[C@@H](CC(=O)O)CC(=O)N[C@H]1CCCC[C@@H]1C(=O)NCC(=O)NCC(=O)N[C@@H](CSC1CC(=O)N(CCC(=O)NCCCC[C@H](NC(=O)CCN2C(=O)CC(SC[C@H](NC(=O)CNC(=O)CNC(=O)[C@H]3CCCC[C@@H]3NC(=O)C[C@H](CC(=O)O)NC(=O)[C@H]3CCCC[C@@H]3NC(=O)[C@H]3CCCC[C@@H]3NC(=O)C[C@H](CCCNC(=N)N)NC(=O)[C@H]3CCCC[C@@H]3N)C(N)=O)C2=O)C(=O)NCCCC[C@H](NC(=O)[C@H](CCCCNC(=O)CCN2C(=O)CC(SC[C@H](NC(=O)CNC(=O)CNC(=O)[C@H]3CCCC[C@@H]3NC(=O)C[C@H](CC(=O)O)NC(=O)[C@H]3CCCC[C@@H]3NC(=O)[C@H]3CCCC[C@@H]3NC(=O)C[C@H](CCCNC(=N)N)NC(=O)[C@H]3CCCC[C@@H]3N)C(N)=O)C2=O)NC(=O)CCN2C(=O)CC(SC[C@H](NC(=O)CNC(=O)CNC(=O)[C@H]3CCCC[C@@H]3NC(=O)C[C@H](CC(=O)O)NC(=O)[C@H]3CCCC[C@@H]3NC(=O)[C@H]3CCCC[C@@H]3NC(=O)C[C@H](CCCNC(=N)N)NC(=O)[C@H]3CCCC[C@@H]3N)C(N)=O)C2=O)C(=O)N[C@@H](CCCCNC(=O)CCCC[C@@H]2SC[C@@H]3NC(=O)N[C@@H]32)C(N)=O)C1=O)C(N)=O)NC(=O)[C@H]1CCCC[C@@H]1N` (some centres unmarked) [Compound 2a], the Kd is 27.6 ± 7.74 nM on Aβ oligomers [1] (first binding stage), 240 ± 68.7 nM on Aβ oligomers [1] (second binding stage) and 0.95 ± 0.06 nM at Aβ oligomers [2].

With `NCCCC[C@@H](CC(=O)N[C@H]1CCCC[C@@H]1C(=O)N[C@H]1CCCC[C@@H]1C(=O)N[C@@H](CC(=O)O)CC(=O)N[C@H]1CCCC[C@@H]1C(=O)NCC(=O)NCC(=O)N[C@@H](CSC1CC(=O)N(CCC(=O)NCCCC[C@H](NC(=O)CCN2C(=O)CC(SC[C@H](NC(=O)CNC(=O)CNC(=O)[C@H]3CCCC[C@@H]3NC(=O)C[C@H](CC(=O)O)NC(=O)[C@H]3CCCC[C@@H]3NC(=O)[C@H]3CCCC[C@@H]3NC(=O)C[C@H](CCCCN)NC(=O)[C@H]3CCCC[C@@H]3N)C(N)=O)C2=O)C(=O)NCCCC[C@H](NC(=O)[C@H](CCCCNC(=O)CCN2C(=O)CC(SC[C@H](NC(=O)CNC(=O)CNC(=O)[C@H]3CCCC[C@@H]3NC(=O)C[C@H](CC(=O)O)NC(=O)[C@H]3CCCC[C@@H]3NC(=O)[C@H]3CCCC[C@@H]3NC(=O)C[C@H](CCCCN)NC(=O)[C@H]3CCCC[C@@H]3N)C(N)=O)C2=O)NC(=O)CCN2C(=O)CC(SC[C@H](NC(=O)CNC(=O)CNC(=O)[C@H]3CCCC[C@@H]3NC(=O)C[C@H](CC(=O)O)NC(=O)[C@H]3CCCC[C@@H]3NC(=O)[C@H]3CCCC[C@@H]3NC(=O)C[C@H](CCCCN)NC(=O)[C@H]3CCCC[C@@H]3N)C(N)=O)C2=O)C(=O)N[C@@H](CCCCNC(=O)CCCC[C@@H]2SC[C@@H]3NC(=O)N[C@@H]32)C(N)=O)C1=O)C(N)=O)NC(=O)[C@H]1CCCC[C@@H]1N` (some centres unmarked) [Compound 2b], the Kd on Aβ oligomers [1] (first binding stage) turned out to be 53.2 ± 38.7 nM; on Aβ oligomers [1] (second binding stage), 373 ± 104 nM; on Aβ oligomers [2] it was 5.36 ± 1.42 nM.

Take `N=C(N)NCCC[C@@H](CC(=O)N[C@H]1CCCC[C@@H]1C(=O)N[C@H]1CCCC[C@@H]1C(=O)N[C@@H](CCC(=O)O)CC(=O)N[C@H]1CCCC[C@@H]1C(=O)NCC(=O)NCC(=O)N[C@@H](CSC1CC(=O)N(CCC(=O)NCCCC[C@H](NC(=O)CCN2C(=O)CC(SC[C@H](NC(=O)CNC(=O)CNC(=O)[C@H]3CCCC[C@@H]3NC(=O)C[C@H](CCC(=O)O)NC(=O)[C@H]3CCCC[C@@H]3NC(=O)[C@H]3CCCC[C@@H]3NC(=O)C[C@H](CCCNC(=N)N)NC(=O)[C@H]3CCCC[C@@H]3N)C(N)=O)C2=O)C(=O)NCCCC[C@H](NC(=O)[C@H](CCCCNC(=O)CCN2C(=O)CC(SC[C@H](NC(=O)CNC(=O)CNC(=O)[C@H]3CCCC[C@@H]3NC(=O)C[C@H](CCC(=O)O)NC(=O)[C@H]3CCCC[C@@H]3NC(=O)[C@H]3CCCC[C@@H]3NC(=O)C[C@H](CCCNC(=N)N)NC(=O)[C@H]3CCCC[C@@H]3N)C(N)=O)C2=O)NC(=O)CCN2C(=O)CC(SC[C@H](NC(=O)CNC(=O)CNC(=O)[C@H]3CCCC[C@@H]3NC(=O)C[C@H](CCC(=O)O)NC(=O)[C@H]3CCCC[C@@H]3NC(=O)[C@H]3CCCC[C@@H]3NC(=O)C[C@H](CCCNC(=N)N)NC(=O)[C@H]3CCCC[C@@H]3N)C(N)=O)C2=O)C(=O)N[C@@H](CCCCNC(=O)CCCC[C@@H]2SC[C@@H]3NC(=O)N[C@@H]32)C(N)=O)C1=O)C(N)=O)NC(=O)[C@H]1CCCC[C@@H]1N` (some centres unmarked) [Compound 2c]: the figures for the equilibrium dissociation constant (Kd) at Aβ oligomers [1] (first binding stage), on Aβ oligomers [1] (second binding stage) and at Aβ oligomers [2] were 2.53 ± 1.81 nM, 175 ± 46.4 nM and 1.92 ± 0.21 nM, respectively.

As to `N=C(N)NCCC[C@H](NC(=O)[C@H]1CCCC[C@@H]1N)C(=O)N[C@H]1CCCC[C@@H]1C(=O)N[C@H]1CCCC[C@@H]1C(=O)N[C@@H](CC(=O)O)C(=O)N[C@H]1CCCC[C@@H]1C(=O)NCC(=O)NCC(=O)N[C@@H](CSC1CC(=O)N(CCC(=O)NCCCC[C@H](NC(=O)CCN2C(=O)CC(SC[C@H](NC(=O)CNC(=O)CNC(=O)[C@H]3CCCC[C@@H]3NC(=O)[C@H](CC(=O)O)NC(=O)[C@H]3CCCC[C@@H]3NC(=O)[C@H]3CCCC[C@@H]3NC(=O)[C@H](CCCNC(=N)N)NC(=O)[C@H]3CCCC[C@@H]3N)C(N)=O)C2=O)C(=O)NCCCC[C@H](NC(=O)[C@H](CCCCNC(=O)CCN2C(=O)CC(SC[C@H](NC(=O)CNC(=O)CNC(=O)[C@H]3CCCC[C@@H]3NC(=O)[C@H](CC(=O)O)NC(=O)[C@H]3CCCC[C@@H]3NC(=O)[C@H]3CCCC[C@@H]3NC(=O)[C@H](CCCNC(=N)N)NC(=O)[C@H]3CCCC[C@@H]3N)C(N)=O)C2=O)NC(=O)CCN2C(=O)CC(SC[C@H](NC(=O)CNC(=O)CNC(=O)[C@H]3CCCC[C@@H]3NC(=O)[C@H](CC(=O)O)NC(=O)[C@H]3CCCC[C@@H]3NC(=O)[C@H]3CCCC[C@@H]3NC(=O)[C@H](CCCNC(=N)N)NC(=O)[C@H]3CCCC[C@@H]3N)C(N)=O)C2=O)C(=O)N[C@@H](CCCCNC(=O)CCCC[C@@H]2SC[C@@H]3NC(=O)N[C@@H]32)C(N)=O)C1=O)C(N)=O` (some centres unmarked) [Compound 2d], the Kd at Aβ oligomers [2] worked out at 7.7 ± 3.06 nM.

The compound `N=C(N)NCCC[C@@H](CC(=O)N[C@H]1CCCC[C@@H]1C(=O)N[C@@H](CC(=O)O)CC(=O)N[C@H]1CCCC[C@@H]1C(=O)NCC(=O)NCC(=O)N[C@@H](CSC1CC(=O)N(CCC(=O)NCCCC[C@H](NC(=O)CCN2C(=O)CC(SC[C@H](NC(=O)CNC(=O)CNC(=O)[C@H]3CCCC[C@@H]3NC(=O)C[C@H](CC(=O)O)NC(=O)[C@H]3CCCC[C@@H]3NC(=O)C[C@H](CCCNC(=N)N)NC(=O)[C@H]3CCCC[C@@H]3NC(=O)[C@H]3CCCC[C@@H]3N)C(N)=O)C2=O)C(=O)NCCCC[C@H](NC(=O)[C@H](CCCCNC(=O)CCN2C(=O)CC(SC[C@H](NC(=O)CNC(=O)CNC(=O)[C@H]3CCCC[C@@H]3NC(=O)C[C@H](CC(=O)O)NC(=O)[C@H]3CCCC[C@@H]3NC(=O)C[C@H](CCCNC(=N)N)NC(=O)[C@H]3CCCC[C@@H]3NC(=O)[C@H]3CCCC[C@@H]3N)C(N)=O)C2=O)NC(=O)CCN2C(=O)CC(SC[C@H](NC(=O)CNC(=O)CNC(=O)[C@H]3CCCC[C@@H]3NC(=O)C[C@H](CC(=O)O)NC(=O)[C@H]3CCCC[C@@H]3NC(=O)C[C@H](CCCNC(=N)N)NC(=O)[C@H]3CCCC[C@@H]3NC(=O)[C@H]3CCCC[C@@H]3N)C(N)=O)C2=O)C(=O)N[C@@H](CCCCNC(=O)CCCC[C@@H]2SC[C@@H]3NC(=O)N[C@@H]32)C(N)=O)C1=O)C(N)=O)NC(=O)[C@H]1CCCC[C@@H]1NC(=O)[C@H]1CCCC[C@@H]1N` (some centres unmarked) [Compound 2e] showed a dissociation constant (Kd) at Aβ oligomers [2] of 2.71 ± 0.21 nM.
